Target: T1, human F508del CFTR (Homo sapiens, UniProt P13569, DEL508-508)
T1 construct: expressed in transfected cells; host or cells: Fisher Rat Thyroid (FRT) cells
Experiment: CFTR-YFP High Throughput Assay
Format: cell-based
Conditions: FRT cells expressing human F508del CFTR and YFP; for Emax: EMax normalized to the positive control, read-out: % Efficacy
Method in brief: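 FRT cells stably co-expressing human F508del CFTR and halide-sensitive YFP-H148Q/I152L; for correction, compound (2 nM-40 μM) incubated 24-26 h at 37° C, washed, then stimulated 60-120 min at RT with 20 μM forskolin plus 30 μM potentiator P3. Iodide-induced YFP quench (Ex 500/Em 540 nm) recorded; quench rates least-squares fitted.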

T1 sequence (P13569 with tags, fused parts or gaps DEL508-508): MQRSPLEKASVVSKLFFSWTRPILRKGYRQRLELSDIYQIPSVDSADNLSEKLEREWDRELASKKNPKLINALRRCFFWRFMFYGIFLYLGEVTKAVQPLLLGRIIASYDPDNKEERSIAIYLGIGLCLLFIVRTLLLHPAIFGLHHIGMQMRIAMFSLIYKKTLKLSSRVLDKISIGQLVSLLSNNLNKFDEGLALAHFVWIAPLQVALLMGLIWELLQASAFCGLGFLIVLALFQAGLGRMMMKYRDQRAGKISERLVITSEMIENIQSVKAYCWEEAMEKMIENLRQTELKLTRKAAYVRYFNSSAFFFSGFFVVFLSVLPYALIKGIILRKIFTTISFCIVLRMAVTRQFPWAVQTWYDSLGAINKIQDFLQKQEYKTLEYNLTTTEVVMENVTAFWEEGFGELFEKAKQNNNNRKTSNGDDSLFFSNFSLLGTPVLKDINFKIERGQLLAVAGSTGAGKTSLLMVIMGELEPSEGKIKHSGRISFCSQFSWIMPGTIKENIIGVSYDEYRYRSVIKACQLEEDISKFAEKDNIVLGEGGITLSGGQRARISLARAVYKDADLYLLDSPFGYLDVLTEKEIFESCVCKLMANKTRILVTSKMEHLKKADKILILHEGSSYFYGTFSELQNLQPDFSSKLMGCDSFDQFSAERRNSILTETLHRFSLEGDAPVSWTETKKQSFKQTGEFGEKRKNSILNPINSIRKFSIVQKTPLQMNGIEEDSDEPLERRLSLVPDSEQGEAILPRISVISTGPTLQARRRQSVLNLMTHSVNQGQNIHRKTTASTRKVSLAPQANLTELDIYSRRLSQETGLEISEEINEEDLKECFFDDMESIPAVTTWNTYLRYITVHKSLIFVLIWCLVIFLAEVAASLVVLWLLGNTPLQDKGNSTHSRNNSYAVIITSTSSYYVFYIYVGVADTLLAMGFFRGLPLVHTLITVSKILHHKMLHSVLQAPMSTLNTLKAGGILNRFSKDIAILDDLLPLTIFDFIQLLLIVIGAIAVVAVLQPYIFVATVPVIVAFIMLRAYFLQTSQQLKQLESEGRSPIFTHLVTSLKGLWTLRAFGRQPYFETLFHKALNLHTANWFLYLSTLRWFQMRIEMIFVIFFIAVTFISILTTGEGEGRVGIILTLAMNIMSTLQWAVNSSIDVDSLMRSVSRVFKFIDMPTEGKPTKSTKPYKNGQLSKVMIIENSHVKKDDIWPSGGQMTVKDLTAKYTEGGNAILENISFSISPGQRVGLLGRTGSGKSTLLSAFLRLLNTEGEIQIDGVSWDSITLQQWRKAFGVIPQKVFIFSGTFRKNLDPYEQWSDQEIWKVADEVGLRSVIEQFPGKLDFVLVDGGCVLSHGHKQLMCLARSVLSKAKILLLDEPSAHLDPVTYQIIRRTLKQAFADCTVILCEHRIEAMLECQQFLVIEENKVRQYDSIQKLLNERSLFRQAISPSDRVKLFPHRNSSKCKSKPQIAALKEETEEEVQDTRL

SMILES	Emax [%]	EC50 [µM]
COc1ccc2c(-c3cccc(C#N)c3)nn(CC(=O)N(c3ccc4c(c3)OC(F)(F)O4)C(C)C)c(=O)c2c1 [Example 77, 2-(4-(3-cyanophenyl)-7-methoxy-1-oxophthalazin-2(1H)-yl)-N-(2,2-difluorobenzo[d][1,3]dioxol-5-yl)-N-isopropylacetamide]	> 80	10 to 20
COc1ccc2c(-c3ccc(S(N)(=O)=O)cc3)nn(CC(=O)N(c3ccc4c(c3)OC(F)(F)O4)C3CC3)c(=O)c2c1 [Example 78, N-cyclopropyl-N-(2,2-difluorobenzo[d][1,3]dioxol-5-yl)-2-(7-methoxy-1-oxo-4-(4-sulfamoylphenyl)phthalazin-2(1H)-yl)acetamide]	30 to 80	
COc1ccc2c(-c3cccc(C#N)c3)nn(CC(=O)N(c3ccc4c(c3)OC(F)(F)O4)C3CC3)c(=O)c2c1 [Example 79, 2-(4-(3-cyanophenyl)-7-methoxy-1-oxophthalazin-2(1H)-yl)-N-cyclopropyl-N-(2,2-difluorobenzo[d][1,3]dioxol-5-yl)acetamide]	> 80	
CCN(C(=O)Cn1nc(-c2ccc(C(N)=O)cc2)c2ccc(OC)cc2c1=O)c1ccc2c(c1)OC(F)(F)O2 [Example 82, 4-(3-(2-((2,2-difluorobenzo[d][1, 3]dioxol-5-yl)(ethyl)amino)-2-oxoethyl)-6-methoxy-4-oxo-3,4-dihydrophthalazin-1-yl)benzamide]	30 to 80	
COc1cc2c(=O)n(CC(=O)N(C)c3ccc4c(c3)OC(F)(F)O4)nc(-c3cccc(C#N)c3)c2cc1Cl [Example 96, 2-(6-chloro-4-(3-cyanophenyl)-7-methoxy-1-oxophthalazin-2(1H)-yl)-N-(2,2-difluorobenzo[d][1,3]dioxol-5-yl)-N-methylacetamide]	> 80	< 10
Cc1nc2ccc(N(C)C(=O)Cn3nc(-c4cccc(Cl)c4)c4ccc(O)cc4c3=O)cc2o1 [Example 98, 2-(4-(3-chlorophenyl)-7-hydroxy-1-oxophthalazin-2(1H)-yl)-N-methyl-N-(2-methylbenzo[d]oxazol-6-yl)acetamide]		< 10
Cc1nc2ccc(N(C(=O)Cn3nc(-c4cccc(Cl)c4)c4ccc(O)cc4c3=O)C3CC3)cc2o1 [Example 100, 2-(4-(3-chlorophenyl)-7-hydroxy-1-oxophthalazin-2(1H)-yl)-N-cyclopropyl-N-(2-methylbenzo[d]oxazol-6-yl)acetamide]		< 10
CCN(C(=O)Cn1nc(-c2cccc(C#N)c2)c2ccc(O)cc2c1=O)c1ccc2c(c1)OC(F)(F)O2 [Example 103, 2-(4-(3-cyanophenyl)-7-hydroxy-1-oxophthalazin-2(1H)-yl)-N-(2,2-difluorobenzo[d][1,3]dioxol-5-yl)-N-ethylacetamide]	> 80	< 10
CCOc1cc2c(=O)n(CC(=O)N(C)c3ccc4c(c3)OC(F)(F)O4)nc(-c3cccc(C#N)c3)c2cc1Cl [Example 122, 2-(6-chloro-4-(3-cyanophenyl)-7-ethoxy-1-oxophthalazin-2(1H)-yl)-N-(2,2-difluorobenzo[d][1,3]dioxol-5-yl)-N-methylacetamide]	> 80	< 10
CCN(C(=O)Cn1nc(C(=O)Nc2ccccc2C#N)c2ccccc2c1=O)c1ccc2c(c1)OC(F)(F)O2 [Example 124, N-(2-cyanophenyl)-3-(2-((2,2-difluorobenzo[d][1, 3]dioxol-5-yl)(ethyl)amino)-2-oxoethyl)-4-oxo-3,4-dihydrophthalazine-1-carboxamide]	30 to 80	
CCN(C(=O)Cn1nc(C(=O)Nc2cc(Cl)ccc2C(=O)O)c2ccccc2c1=O)c1ccc2c(c1)OC(F)(F)O2 [Example 125]	30 to 80	
CCN(C(=O)Cn1nc(C(=O)Nc2ccccn2)c2ccccc2c1=O)c1ccc2c(c1)OC(F)(F)O2 [Example 126, 3-(2-((2,2-difluorobenzo[d][1,3]dioxol-5-yl)(ethyl)amino)-2-oxoethyl)-4-oxo-N-(pyridin-2-yl)-3,4-dihydrophthalazine-1-carboxamide]	30 to 80	< 10
CCN(C(=O)Cn1nc(C(=O)N(C)c2ccccn2)c2ccccc2c1=O)c1ccc2c(c1)OC(F)(F)O2 [Example 127, 3-(2-((2,2-difluorobenzo[d][1,3]dioxol-5-yl)(ethyl)amino)-2-oxoethyl)-N-methyl-4-oxo-N-(pyridin-2-yl)-3,4-dihydrophthalazine-1-carboxamide]	30 to 80	< 10
CCc1ccc(N(CC)C(=O)Cn2nc(C(=O)Nc3cc(Cl)ccc3C#N)c3ccccc3c2=O)cc1 [Example 128, N-(5-chloro-2-cyanophenyl)-3-(2-(ethyl(4-ethylphenyl)amino)-2-oxoethyl)-4-oxo-3,4-dihydrophthalazine-1-carboxamide]	30 to 80	10 to 20
CCN(C(=O)Cn1nc(C(=O)N(CC)c2ccccc2C#N)c2ccccc2c1=O)c1ccc2c(c1)OC(F)(F)O2 [Example 129, N-(2-cyanophenyl)-3-(2-((2,2-difluorobenzo[d][1,3]dioxol-5-yl)(ethyl)amino)-2-oxoethyl)-N-ethyl-4-oxo-3,4-dihydrophthalazine-1-carboxamide]	30 to 80	10 to 20

More lines, now with the values ahead:

Emax [%]	EC50 [µM]	SMILES
30 to 80	10 to 20	CCN(C(=O)Cn1nc(-c2ccc(S(N)(=O)=O)cc2)c2ccc(OC)cc2c1=O)c1ccc2nc(C)oc2c1 [Example 80, N-ethyl-2-(7-methoxy-1-oxo-4-(4-sulfamoylphenyl)phthalazin-2(1H)-yl)-N-(2-methylbenzo[d]oxazol-6-yl)acetamide]
> 80	< 10	CCN(C(=O)Cn1nc(-c2cccc(C#N)c2)c2ccc(OC)cc2c1=O)c1ccc2nc(C)oc2c1 [Example 81, 2-(4-(3-cyanophenyl)-7-methoxy-1-oxophthalazin-2(1H)-yl)-N-ethyl-N-(2-methylbenzo[d]oxazol-6-yl)acetamide]
30 to 80		COc1ccc2c(-c3ccc(C(N)=O)cc3)nn(CC(=O)N(C)c3ccc4c(c3)OC(F)(F)O4)c(=O)c2c1 [Example 83, 4-(3-(2-((2,2-difluorobenzo[d][1, 3]dioxol-5-yl)(methyl)amino)-2-oxoethyl)-6-methoxy-4-oxo-3,4-dihydrophthalazin-1-yl)benzamide]
30 to 80		CCN(C(=O)Cn1nc(-c2ccc(C(N)=O)cc2)c2ccc(OC)cc2c1=O)c1ccc2nc(C)oc2c1 [Example 84, 4-(3-(2-(ethyl(2-methylbenzo[d]oxazol-6-yl)amino)-2-oxoethyl)-6-methoxy-4-oxo-3,4-dihydrophthalazin-1-yl)benzamide]
> 80	< 10	[2H]C([2H])([2H])N(C(=O)Cn1nc(-c2cccc(C#N)c2)c2ccc(OC)cc2c1=O)c1ccc2nc(C)oc2c1 [Example 86, 2-(4-(3-cyanophenyl)-7-methoxy-1-oxophthalazin-2(1H)-yl)-N-(methyl-d3)-N-(2-methylbenzo[d]oxazol-6-yl)acetamide]
> 80	< 10	COc1ccc2c(-c3cccc(C#N)c3)nn(CC(=O)N(C)c3ccc4nc(C)oc4c3)c(=O)c2c1 [Example 87, 2-(4-(3-cyanophenyl)-7-methoxy-1-oxophthalazin-2(1H)-yl)-N-methyl-N-(2-methylbenzo[d]oxazol-6-yl)acetamide]
> 80		COc1cc2c(=O)n(CC(=O)N(C)c3ccc4nc(C)oc4c3)nc(-c3cccc(F)c3)c2cc1Cl [Example 93, 2-(6-chloro-4-(3-fluorophenyl)-7-methoxy-1-oxophthalazin-2(1H)-yl)-N-methyl-N-(2-methylbenzo[d]oxazol-6-yl)acetamide]
> 80		Cc1nc2ccc(N(C(=O)Cn3nc(-c4cccc(F)c4)c4ccc(O)cc4c3=O)C3CC3)cc2o1 [Example 99, N-cyclopropyl-2-(4-(3-fluorophenyl)-7-hydroxy-1-oxophthalazin-2(1H)-yl)-N-(2-methylbenzo[d]oxazol-6-yl)acetamide]
> 80	< 10	CN(C(=O)Cn1nc(-c2cccc(C#N)c2)c2ccc(O)cc2c1=O)c1ccc2c(c1)OC(F)(F)O2 [Example 102, 2-(4-(3-cyanophenyl)-7-hydroxy-1-oxophthalazin-2(1H)-yl)-N-(2,2-difluorobenzo[d][1,3]dioxol-5-yl)-N-methylacetamide]
> 80	< 10	CCOc1ccc2c(-c3cccc(C#N)c3)nn(CC(=O)N(C)c3ccc4nc(C)oc4c3)c(=O)c2c1 [Example 109, 2-(4-(3-cyanophenyl)-7-ethoxy-1-oxophthalazin-2(1H)-yl)-N-methyl-N-(2-methylbenzo[d]oxazol-6-yl)acetamide]
> 80	< 10	Cc1nc2ccc(N(C)C(=O)Cn3nc(-c4cccc(C#N)c4)c4ccc(OC5CCCCC5)cc4c3=O)cc2o1 [Example 115, 2-(4-(3-cyanophenyl)-7-(cyclohexyloxy)-1-oxophthalazin-2(1H)-yl)-N-methyl-N-(2-methylbenzo[d]oxazol-6-yl)acetamide]
> 80	< 10	Cc1nc2ccc(N(C)C(=O)Cn3nc(-c4cccc(Cl)c4)c4ccc(OCc5ccccc5)cc4c3=O)cc2o1 [Example 116, 2-(7-(benzyloxy)-4-(3-chlorophenyl)-1-oxophthalazin-2(1H)-yl)-N-methyl-N-(2-methylbenzo[d]oxazol-6-yl)acetamide]
> 80	< 10	Cc1nc2ccc(N(C)C(=O)Cn3nc(-c4cccc(C#N)c4)c4ccc(OC5CCOCC5)cc4c3=O)cc2o1 [Example 120, 2-(4-(3-cyanophenyl)-1-oxo-7-((tetrahydro-2H-pyran-4-yl)oxy)phthalazin-2(1H)-yl)-N-methyl-N-(2-methylbenzo[d]oxazol-6-yl)acetamide]
> 80		CCOc1cc2c(=O)n(CC(=O)N(C)c3ccc4nc(C)oc4c3)nc(-c3cccc(F)c3)c2cc1Cl [Example 121, 2-(6-chloro-7-ethoxy-4-(3-fluorophenyl)-1-oxophthalazin-2(1H)-yl)-N-methyl-N-(2-methylbenzo[d]oxazol-6-yl)acetamide]

From patent US10370366B2 (Flatley Discovery Lab, LLC, priority 2013, dated 2019)
